Experimental data taken from the supplement of paper PMC10307832.

How the values were obtained:
Experiment in all cases: relative viability (nuclei count vs DMSO), 5 days (fraction); higher = more cells survive
A-427 = test system: A-427
Procedure, shortened: (§1)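 One day after seeding in 1536-well plates, lung cancer cell lines were dosed by pin tool. Dosing was either single-drug or a fixed anchor-drug dose plus five library-drug doses (not always all listed) in √10 steps. After 5 days, nuclei were stained in one fix-and-stain step and counted on 4× images, and relative viability is the nuclei count of treated wells over that of vehicle wells, given as the median of duplicate plates.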

COR-L 105 = test system: COR-L 105
Procedure, shortened: as §1

ChaGo-K-1 = test system: ChaGo-K-1
Procedure, shortened: as §1

EKVX = test system: EKVX
Procedure, shortened: as §1

EMC-BAC-2 = test system: EMC-BAC-2
Procedure, shortened: as §1

H3255 = test system: H3255
Procedure, shortened: as §1

HCC-366 = test system: HCC-366
Procedure, shortened: as §1

LK-2 = test system: LK-2
Procedure, shortened: as §1

LOU-NH91 = test system: LOU-NH91
Procedure, shortened: as §1

NCI-H1666 = test system: NCI-H1666
Procedure, shortened: as §1

NCI-H1734 = test system: NCI-H1734
Procedure, shortened: as §1

NCI-H1755 = test system: NCI-H1755
Procedure, shortened: as §1

NCI-H1975 = test system: NCI-H1975
Procedure, shortened: as §1

NCI-H2170 = test system: NCI-H2170
Procedure, shortened: as §1

NCI-H23 = test system: NCI-H23
Procedure, shortened: as §1

NCI-H441 = test system: NCI-H441
Procedure, shortened: as §1

NCI-H520 = test system: NCI-H520
Procedure, shortened: as §1

PC-3 [JPC-3] = test system: PC-3 [JPC-3]
Procedure, shortened: as §1

SK-MES-1 = test system: SK-MES-1
Procedure, shortened: as §1

SW 900 = test system: SW 900
Procedure, shortened: as §1

Compound: COc1cc2nccc(Oc3ccc(NC(=O)Nc4cc(C)on4)c(Cl)c3)c2cc1OC [Tivozanib] + CC(=O)c1c(C)c2cnc(Nc3ccc(N4CCNCC4)cn3)nc2n(C2CCCC2)c1=O [Palbociclib] (partner 0.5 µM)
- relative viability (A-427; first compound 0.005 µM): 0.51
- relative viability (A-427; first compound 0.01581 µM): 0.55
- relative viability (A-427; first compound 0.05 µM): 0.511
- relative viability (A-427; first compound 0.1581 µM): 0.531
- relative viability (A-427; first compound 0.5 µM): 0.476
- relative viability (COR-L 105; first compound 0.005 µM): 0.411
- relative viability (COR-L 105; first compound 0.01581 µM): 0.436
- relative viability (COR-L 105; first compound 0.05 µM): 0.433
- relative viability (COR-L 105; first compound 0.1581 µM): 0.404
- relative viability (COR-L 105; first compound 0.5 µM): 0.415
- relative viability (ChaGo-K-1; first compound 0.005 µM): 0.879
- relative viability (ChaGo-K-1; first compound 0.01581 µM): 0.916
- relative viability (ChaGo-K-1; first compound 0.05 µM): 0.898
- relative viability (ChaGo-K-1; first compound 0.1581 µM): 0.947
- relative viability (ChaGo-K-1; first compound 0.5 µM): 0.886
- relative viability (EKVX; first compound 0.005 µM): 0.37
- relative viability (EKVX; first compound 0.01581 µM): 0.455
- relative viability (EKVX; first compound 0.05 µM): 0.449
- relative viability (EKVX; first compound 0.1581 µM): 0.291
- relative viability (EKVX; first compound 0.5 µM): 0.407
- relative viability (EMC-BAC-2; first compound 0.005 µM): 0.524
- relative viability (EMC-BAC-2; first compound 0.01581 µM): 0.543
- relative viability (EMC-BAC-2; first compound 0.05 µM): 0.529
- relative viability (EMC-BAC-2; first compound 0.1581 µM): 0.521
- relative viability (EMC-BAC-2; first compound 0.5 µM): 0.494
- relative viability (H3255; first compound 0.005 µM): 0.313
- relative viability (H3255; first compound 0.01581 µM): 0.356
- relative viability (H3255; first compound 0.05 µM): 0.294
- relative viability (H3255; first compound 0.1581 µM): 0.334
- relative viability (H3255; first compound 0.5 µM): 0.328
- relative viability (HCC-366; first compound 0.005 µM): 0.394
- relative viability (HCC-366; first compound 0.01581 µM): 0.422
- relative viability (HCC-366; first compound 0.05 µM): 0.362
- relative viability (HCC-366; first compound 0.1581 µM): 0.343
- relative viability (HCC-366; first compound 0.5 µM): 0.322
- relative viability (LK-2; first compound 0.005 µM): 0.664
- relative viability (LK-2; first compound 0.01581 µM): 0.674
- relative viability (LK-2; first compound 0.05 µM): 0.503
- relative viability (LK-2; first compound 0.1581 µM): 0.875
- relative viability (LK-2; first compound 0.5 µM): 0.742
- relative viability (LOU-NH91; first compound 0.005 µM): 0.431
- relative viability (LOU-NH91; first compound 0.01581 µM): 0.498
- relative viability (LOU-NH91; first compound 0.05 µM): 0.513
- relative viability (LOU-NH91; first compound 0.1581 µM): 0.549
- relative viability (LOU-NH91; first compound 0.5 µM): 0.538
- relative viability (NCI-H1666; first compound 0.005 µM): 0.628
- relative viability (NCI-H1666; first compound 0.01581 µM): 0.666
- relative viability (NCI-H1666; first compound 0.05 µM): 0.639
- relative viability (NCI-H1666; first compound 0.1581 µM): 0.668
- relative viability (NCI-H1666; first compound 0.5 µM): 0.642
- relative viability (NCI-H1734; first compound 0.005 µM): 0.313
- relative viability (NCI-H1734; first compound 0.01581 µM): 0.34
- relative viability (NCI-H1734; first compound 0.05 µM): 0.335
- relative viability (NCI-H1734; first compound 0.1581 µM): 0.336
- relative viability (NCI-H1734; first compound 0.5 µM): 0.345
- relative viability (NCI-H1755; first compound 0.005 µM): 0.437
- relative viability (NCI-H1755; first compound 0.01581 µM): 0.467
- relative viability (NCI-H1755; first compound 0.05 µM): 0.442
- relative viability (NCI-H1755; first compound 0.1581 µM): 0.421
- relative viability (NCI-H1755; first compound 0.5 µM): 0.403
- relative viability (NCI-H1975; first compound 0.005 µM): 0.585
- relative viability (NCI-H1975; first compound 0.01581 µM): 0.609
- relative viability (NCI-H1975; first compound 0.05 µM): 0.648
- relative viability (NCI-H1975; first compound 0.1581 µM): 0.341
- relative viability (NCI-H1975; first compound 0.5 µM): 0.509
- relative viability (NCI-H2170; first compound 0.005 µM): 0.398
- relative viability (NCI-H2170; first compound 0.01581 µM): 0.392
- relative viability (NCI-H2170; first compound 0.05 µM): 0.414
- relative viability (NCI-H2170; first compound 0.5 µM): 0.388
- relative viability (NCI-H23; first compound 0.005 µM): 0.459
- relative viability (NCI-H23; first compound 0.01581 µM): 0.569
- relative viability (NCI-H23; first compound 0.05 µM): 0.488
- relative viability (NCI-H23; first compound 0.5 µM): 0.497
- relative viability (NCI-H441; first compound 0.005 µM): 0.214
- relative viability (NCI-H441; first compound 0.01581 µM): 0.262
- relative viability (NCI-H441; first compound 0.05 µM): 0.248
- relative viability (NCI-H441; first compound 0.1581 µM): 0.216
- relative viability (NCI-H441; first compound 0.5 µM): 0.207
- relative viability (NCI-H520; first compound 0.005 µM): 0.231
- relative viability (NCI-H520; first compound 0.01581 µM): 0.296
- relative viability (NCI-H520; first compound 0.05 µM): 0.238
- relative viability (NCI-H520; first compound 0.1581 µM): 0.19
- relative viability (NCI-H520; first compound 0.5 µM): 0.231
- relative viability (PC-3 [JPC-3]; first compound 0.01581 µM): 0.55
- relative viability (PC-3 [JPC-3]; first compound 0.05 µM): 0.554
- relative viability (PC-3 [JPC-3]; first compound 0.1581 µM): 0.609
- relative viability (PC-3 [JPC-3]; first compound 0.5 µM): 0.55
- relative viability (SK-MES-1; first compound 0.005 µM): 0.306
- relative viability (SK-MES-1; first compound 0.01581 µM): 0.345
- relative viability (SK-MES-1; first compound 0.05 µM): 0.365
- relative viability (SK-MES-1; first compound 0.1581 µM): 0.326
- relative viability (SK-MES-1; first compound 0.5 µM): 0.376
- relative viability (SW 900; first compound 0.005 µM): 0.519
- relative viability (SW 900; first compound 0.01581 µM): 0.552
- relative viability (SW 900; first compound 0.05 µM): 0.559
- relative viability (SW 900; first compound 0.5 µM): 0.531
